Test results taken from patent publication US10179801B2, “Truncated LYP-1 peptides and methods and compositions using truncated LYP-1 peptides” (SANFORD-BURNHAM MEDICAL RESEARCH INSTITUTE, priority 2011, dated 2019).
“Also recorded” adds a separate entry of the source. Values belong to the substance of their own block, whether it stands above or below them. Ends that are not written are not given here. * marks the point of attachment. Biotin = O=C1N[C@H]2[C@H](CS[C@H]2CCCCC(=O)*)N1

Experiments:
[1] = system: PPC1 cells; experiment: Phage binding and internalization into PPC1 cells (confocal microscopy); assay type: cell-based, human; conditions: 30 min pre-incubation, increasing concentrations, phage 2 h
Description: (§1) Cells were grown on collagen I-coated coverslips (BD Biosciences) for 24-72 h. After 4% PFA fixation, cells were stained with antibodies following the same procedure as for tumor sections, and mounted in DAPI-containing mounting media. For phage binding assay, 10^9 pfu of phage in cell culture medium were incubated for 1-2 h. When neutravidin-peptide inhibitors were used, they were added to the cell medium 30 min prior to phage incubation. Neutravidin alone, at the maximum concentration used in the assay, was used as a control. Cells were examined on a Fluoview 500 confocal microscope (Olympus America).
Phage were detected by staining with anti-T7 phage polyclonal antibody. Nuclei were stained with DAPI. […] Cells were co-stained for NRP1 and nuclei were stained with DAPI. […] Non-conjugated neutravidin was used as a control. Nuclei were stained with DAPI. Cells were analyzed by confocal microscopy.

[2] = system: MDA-MB-435 cells; experiment: Phage binding and internalization into MDA-MB-435 cells (confocal microscopy); assay type: cell-based, human; conditions: 30 min pre-incubation, increasing concentrations, phage 2 h
Description: as §1
Cells were co-stained for NRP2 and nuclei were stained with DAPI. […] Non-conjugated neutravidin was used as a control. Nuclei were stained with DAPI.
Having established that tLyP-1, but not LyP-1, binds to NRP1 and NRP2, but both peptides internalize into tumor cells, it was realized that LyP-1 is converted into tLyP-1 and that the two peptides are taken up by cells through the CendR pathway. The effect of an excess of tLyP-1 on LyP-1 internalization was tested. […] After 30 min pre-incubation with increasing concentrations of neutravidin-tLyP-1 peptide, MDA-MB-435 cells were incubated with LyP-1 phage for 2 h. Phage were stained with anti-T7 antibody. Nuclei were stained with DAPI.

[3] = target: T1, NRP1 (Homo sapiens, UniProt O14786); experiment: Phage binding to DU145 cells with ligand-blocking anti-NRP1; assay type: cell-based; conditions: 4° C.
T1 construct: endogenous in cells; host or cells: DU145 prostate carcinoma cells
Description: To measure phage binding on cells, 2×10^5 suspended cells were incubated with 7×10^8 pfu/mL of T7 phage in DMEM/BSA 1% for 1 h at 4° C. Ligand-blocking antibodies or control goat IgG isotype (10 μg/sample) were added 30 min prior to phage incubation. The cells were washed four times with DMEM/BSA 1%, and lysed with lysogeny broth containing 1% Nonidet P-40 (LB/NP40) before phage titration.
The role of the CendR motif in the LyP-1 peptide was investigated by testing the binding of phage displaying the predicted active CendR fragment CGNKRTR (tLyP-1 for truncated LyP-1; SEQ ID NO:4) and other truncated forms of LyP-1 to cultured tumor cells. DU145 prostate carcinoma cells were used, which express NRP1, but not NRP2 (FIG. 6). As these peptides could have other receptors on the DU145 cells, inhibition of cell binding by a function-blocking anti-NRP1 antibody was used as an indicator of NRP1 dependence of phage binding. […] This is supported by recent modeling studies showing that glycine-containing peptides (G7 (SEQ ID NO:104), G3RG3 (SEQ ID NO:105), and G4RG2 SEQ ID NO:106) were able to dock in NRP1 binding pocket without major deformation of the receptor structure (Haspel et al, 2011).

[4] = target: T2, p32 (Homo sapiens, UniProt Q07021); experiment: ELISA-based saturation assay of FAM-peptides on purified p32; assay type: binding; conditions: wells coated with 3 μg/mL p32, 37° C. 1 h
T2 sequence (Q07021 74-282): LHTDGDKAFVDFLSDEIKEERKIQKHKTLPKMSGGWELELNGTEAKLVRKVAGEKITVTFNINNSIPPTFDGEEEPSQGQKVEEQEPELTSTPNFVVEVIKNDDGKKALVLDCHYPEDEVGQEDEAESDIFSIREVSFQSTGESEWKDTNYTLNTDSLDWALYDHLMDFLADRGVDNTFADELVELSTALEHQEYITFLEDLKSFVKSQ
Description: Binding of FAM-tLyP-1 and FAM-LyP-1 to p32 was measured by an ELISA-based assay. Microtiter wells coated with 3 μg/mL of purified p32 (Fogal et al, 2008) were incubated with increasing concentrations of FAM-peptides at 37° C. for 1 h. After washing with cold PBS added with 0.01% Tween 20 and 0.2 M NaCl, fluorescence was read at 495 nm.
(§2) The MDA-MB-435 cells express the cell surface LyP-1 primary receptor p32 (Fogal et al, 2008). To test whether internalization of tLyP-1 and LyP-1 could occur through this receptor, tLyP-1 capacity to bind p32 was explored. […] Thus, only the intact LyP-1 peptide binds to p32.

[5] = target: T3, p32 (Mus musculus, UniProt O35658); experiment: Affinity chromatography of 4T1 breast tumor extracts on tLyP-1; assay type: binding; conditions: data not shown
T3 construct: from tissue; host or cells: 4T1 breast tumor extracts (orthotopic tumors in BALB/c mice)
T3 sequence (O35658 71-278): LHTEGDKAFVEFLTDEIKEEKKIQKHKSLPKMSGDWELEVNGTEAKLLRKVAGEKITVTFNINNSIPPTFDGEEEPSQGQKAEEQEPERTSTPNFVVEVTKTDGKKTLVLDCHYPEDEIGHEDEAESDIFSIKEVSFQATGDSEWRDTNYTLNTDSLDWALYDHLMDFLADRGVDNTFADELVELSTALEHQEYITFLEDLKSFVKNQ
Source text: as §2

[6] = system: tumor; experiment: Tumor penetration of a compound co-administered with tLyP-1; assay type: in vivo; conditions: tLyP-1 peptide injected together with CGKRK; confocal microscopy
Source text: Thus, tLyP-1 can also induce penetration of a co-administered compound.

[7] = system: tumor; conditions: CGKRK by itself; cited from earlier work
[8] = system: 4T1 tumors; experiment: FAM-peptide homing in 4T1 tumor bearing mice; assay type: in vivo, BALB/c mice; conditions: i.v., 1 h circulation
Description: To produce 4T1 tumors, BALB/c mice were orthotopically injected into the mammary fat pad with 10^6 cells suspended in 100 μL of PBS. To produce MDA-MB-435 breast tumors, BALB/C athymic nude mice were orthotopically injected into the mammary fat pad with 2×10^6 cells suspended in 100 μL of PBS.
4T1 tumor bearing BALB/c mice and MDA-MB-435 tumor bearing nude mice were intravenously injected with respectively 150 μL and 100 μL of 1 mM FAM-labeled synthetic peptides. After 1 h circulation, mice were perfused and tissues were collected and observed under UV light (Illuma—tool Bright Light System LT-9900) and processed for immunofluorescence analysis.
150 μl of 1 mM FAM-tLyP-1 or control FAM-[…] was intravenously injected into 4T1 tumor bearing mice. The peptides were allowed to circulate for 1 h and tumors and organs were collected and viewed under UV light. […] FAM-tLyP-1 (100 μl of 1 mM) was intravenously injected into MDA-MB-435 tumor bearing mice. The peptide was allowed to circulate for 45 min, and tumor and organs were collected and viewed under UV light. […] Confocal microscope images were made of the tumor and of normal organs after 1 h of FAM-tLyP-1 circulation in 4T1 tumor bearing mice.

T1 sequence (O14786 22-923): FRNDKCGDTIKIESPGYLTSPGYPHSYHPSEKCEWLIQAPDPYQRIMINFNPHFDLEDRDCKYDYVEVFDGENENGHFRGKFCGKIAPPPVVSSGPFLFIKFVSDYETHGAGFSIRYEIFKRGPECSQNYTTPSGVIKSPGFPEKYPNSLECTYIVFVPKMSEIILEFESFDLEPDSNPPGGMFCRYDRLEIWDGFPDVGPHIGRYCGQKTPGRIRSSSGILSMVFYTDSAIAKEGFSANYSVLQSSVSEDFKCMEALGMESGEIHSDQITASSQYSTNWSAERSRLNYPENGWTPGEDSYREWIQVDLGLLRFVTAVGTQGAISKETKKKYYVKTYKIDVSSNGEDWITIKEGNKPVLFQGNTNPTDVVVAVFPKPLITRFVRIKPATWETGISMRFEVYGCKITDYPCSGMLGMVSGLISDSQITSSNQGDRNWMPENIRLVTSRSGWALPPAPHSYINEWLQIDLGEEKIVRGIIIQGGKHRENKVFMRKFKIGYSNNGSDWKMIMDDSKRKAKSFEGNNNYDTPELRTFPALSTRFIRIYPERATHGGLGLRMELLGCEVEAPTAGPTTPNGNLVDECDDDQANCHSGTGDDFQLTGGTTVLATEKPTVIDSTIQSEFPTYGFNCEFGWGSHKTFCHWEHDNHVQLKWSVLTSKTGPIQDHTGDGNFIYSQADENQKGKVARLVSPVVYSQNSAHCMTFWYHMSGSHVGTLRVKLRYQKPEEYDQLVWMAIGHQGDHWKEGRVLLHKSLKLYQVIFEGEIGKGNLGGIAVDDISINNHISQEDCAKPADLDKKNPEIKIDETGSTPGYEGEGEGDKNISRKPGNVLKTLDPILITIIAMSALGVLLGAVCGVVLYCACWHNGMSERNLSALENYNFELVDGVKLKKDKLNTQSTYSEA

Substance: oligomeric RPARPAR peptide: tetrameric biotinylated RPARPAR peptide conjugated with neutravidin (Biotin-RPARPAR; not fully specified (C-terminus); also: tetrameric, biotinylated, conjugated with neutravidin)
Inhibition of tLyP-1 phage internalization into PPC1 cells [1]: inhibited in a dose-dependent manner
Inhibition of tLyP-1 phage binding and internalization in MDA-MB-435 cells [2]: blocked the binding and internalization

Effect of ligand-blocking anti-NRP1 on phage binding to DU145 cells (in words) [3]: mild reproducible decrease
Substance: CGNKRTRG

Substance: CGNK
Effect of ligand-blocking anti-NRP1 on phage binding to DU145 cells (in words) [3]: not enough to confer significant ability to bind to NRP1

Binding to purified p32 [4]: low binding
Binding of p32 from tumor extract to peptide affinity matrix [5]: no binding of p32
Substance: CGNKRTR [tLyP-1, truncated form of LyP-1, in which CendR motif is exposed]
Tumor penetration of co-injected CGKRK [6]: enhanced tumor penetration of CGKRK

Substance: CGNKR
Effect of ligand-blocking anti-NRP1 on phage binding to DU145 cells (in words) [3]: not enough to confer significant ability to bind to NRP1

Substance: CGKRK [tumor-homing peptide]
Exit from blood vessels of peptide alone [7]: unable to get out of blood vessels by itself

Substance: FAM-ARALPSQRSR: control peptide, fluorescein-labeled ARALPSQRSR (not fully specified; fluorescein label)
Tumor fluorescence / accumulation of FAM-peptide [8]: did not accumulate in the tumors; also recorded: absence of fluorescence
